Measured values reported in ChEMBL document CHEMBL1921688, “Alkaloids from Chelidonium majus and their inhibitory effects on LPS-induced NO production in RAW264.7 cells” (Bioorg Med Chem Lett, 2011).
The source made the active and inactive calls. No cut-off for these calls is given here.

Columns and labels:
RAW264.7 [1] = experiment: Antiinflammatory activity in mouse RAW264.7 cells assessed as inhibition of LPS-induced COX2 production after 18 hrs by Western blot analysis; type: functional, cell-based
RAW264.7 [2] = experiment: Antiinflammatory activity in mouse RAW264.7 cells assessed as inhibition of LPS-induced iNOS production after 18 hrs by Western blot analysis; type: functional, cell-based
RAW264.7 [3] = experiment: Antiinflammatory activity in mouse RAW264.7 cells assessed as inhibition of LPS-induced COX2 promoter activity; type: functional, cell-based
RAW264.7 [4] = experiment: Antiinflammatory activity in mouse RAW264.7 cells assessed as inhibition of LPS-induced iNOS production at 1 uM after 18 hrs by Western blot analysis; type: functional, cell-based
RAW264.7 [5] = experiment: Antiinflammatory activity in mouse RAW264.7 cells assessed as inhibition of LPS-induced COX2 production at 3 uM after 18 hrs by Western blot analysis; type: functional, cell-based
RAW264.7 [6] = experiment: Cytotoxicity against mouse RAW264.7 cells assessed as cell viability at 50 uM after 24 hrs by MTT assay; type: cell-based; conditions: raw264.7, 24 h
RAW264.7 [7] = experiment: Antiinflammatory activity in mouse RAW264.7 cells assessed as inhibition of LPS-induced nitric oxide production after 24 hrs by griess assay; type: functional, cell-based; conditions: RAW264.7, 24 h
RAW264.7 [8] = experiment: Antiinflammatory activity in mouse RAW264.7 cells assessed as inhibition of LPS-induced iNOS promoter activity; type: functional, cell-based
RAW264.7 [9] = experiment: Antiinflammatory activity in mouse RAW264.7 cells assessed as inhibition of LPS-induced iNOS production at 3 uM after 18 hrs by Western blot analysis; type: functional, cell-based

Structure (SMILES)	inhibition (RAW264.7 [1])	inhibition (RAW264.7 [2])	inhibition (RAW264.7 [3])	inhibition (RAW264.7 [4])	inhibition (RAW264.7 [5])	Activity (RAW264.7 [6])	IC50 (RAW264.7 [7])	inhibition (RAW264.7 [8])	inhibition (RAW264.7 [9])
CN1c2c(ccc3cc4c(cc23)OCO4)-c2ccc3c(c2C1O)OCO3 (stereo not given)	Dose-dependent effect	Dose-dependent effect	Active	Active	Active	Non-toxic	4.5 µM	Active	–
COC(=O)CC1c2c(ccc3c2OCO3)-c2ccc3cc4c(cc3c2N1C)OCO4 (stereo not given)	–	–	–	–	–	Non-toxic	> 50 µM	–	–
COc1ccc2cc3[n+](cc2c1OC)CCc1cc2c(cc1-3)OCO2 [BERBERINE]	–	–	–	–	–	Non-toxic	> 30 µM	–	–
CN1Cc2c(ccc3c2OCO3)[C@@H]2[C@H]1c1cc3c(cc1C[C@@H]2O)OCO3 [CHELIDONINE]	Dose-dependent effect	Dose-dependent effect	Active	–	Active	Non-toxic	7.3 µM	Active	Active
O[C@@H]1Cc2cc3c(cc2[C@@H]2NCc4c(ccc5c4OCO5)[C@H]12)OCO3 [NORCHELIDONINE]	–	–	–	–	–	Non-toxic	16.5 µM	–	–
CN1CCc2cc3c(cc2C(=O)Cc2ccc4c(c2C1)OCO4)OCO3 [PROTOPINE]	–	–	–	–	–	Non-toxic	–	–	–
c1cc2c(c3c1C[C@H]1c4cc5c(cc4CCN1C3)OCO5)OCO2 [STYLOPINE]	–	–	–	–	–	Non-toxic	> 50 µM	–	–
